Measurements: patent US4448785A, “N-Unsaturated fatty acid amides of tryptophan ester homologues and anti-cholesteric use thereof” (Sandoz, Inc., priority 1982, dated 1984)
“And” between values parts separate entries of the source, which are not always exact repeats. Equal values may be shown once.

Tests used:
[1] = system: monkey aortic smooth muscle cells; assay: Cell culture cholesterol ester test, monkey aortic smooth muscle cells (Table 2); type: cell-based, Rhesus monkey; settings: 5% HRS
Description: The compounds of formula I of this invention are useful as pharmaceutical agents in animals. In particular, the compounds of the formula I are useful in controlling the cholesterol ester content of mammalian arterial walls and are therefore particularly indicated for use as anti-atherosclerotic agents, ie. agents useful in the prophylactic treatment of atherosclerosis and in the controlling of atherosclerotic conditions due to cholesterol ester accumulation in the arterial walls. Such ability of the compounds of the formula I is indicated e.g., by known test procedures in which the total cholesterol ester content of cultured cells is shown to be reduced by a test compound, as compared to untreated cells, and carried out, for example, by the following procedures:
Rhesus monkey smooth muscle cells (from the arterial, eg aorta wall) obtained by the method of K. Fisher-Dzoga et al (Experimental and Molecular Pathology 18, 162-176 (1973)) are routinely grown in 75 cm^2 tissue culture flasks using Minimum Essential Medium (Eagle) supplemented with 10% fetal bovine serum. For testing a 75 cm^2 flask with a near confluent cell growth is selected. The cells are removed from the flask surface by mild enzymatic treatment with pronase. After centrifugation and decanting the enzyme solution, the cell pellet is resuspended in an appropriate volume of media for seeding the desired number of 60 mm tissue culture dishes. Five (5) ml of the diluted cell suspension are pipetted into each dish. After seeding, the dishes are labelled with the cell type, date and flask number of origin and incubated at 37° C. in approximately 5% CO2 atmosphere in a high humidity incubator. When the cultures are confluent, the actual drug testing is begun. Test compounds are routinely solubilized in 100% ethanol. An equivalent amount of ethanol is added to control groups as well. The tissue culture dishes are randomly divided into groups. To one group, hyperlipemic rabbit serum (HRS) is added at 5% by volume (control). To the remaining groups, 5% HRS and 1 mg per 100 ml of media of the test compound are added. The dishes are returned to the incubator for an additional 24 hours. All operations through to the final incubation are performed using sterile technique in a laminar flow hood. After the incubation period, the dishes are microscopically observed with the Zeiss Axiomat with phase contrast optics and the conditions of the cultures are recorded; especially in regard to the size, number and configuration of cytoplasmic inclusions and to cellular morphology. The media is removed from the cultures and 0.9% sodium chloride solution is added. The cells are removed from the flasks with the aid of a rubber policeman and transferred to a conical graduated centrifuge tube. The cells are washed three times by suspending in an isotonic salt solution, centrifuging at 800× g for 10 minutes and aspirating the supernatant fluid.
An appropriate volume of isopropyl alcohol (about 1 ml/mg protein) is then added to the cell pellet and the sample sonicated with a micro probe (140×3 mm) for 10 seconds with a "LO" setting of 50 on a Bronwell Biosonik IV. After centrifugation for 15 minutes at 800× g, the clear supernatant is decanted and an aliquot taken for cholesterol analysis.
The residue is dissolved in 0.1 N sodium hydroxide and an aliquot taken for protein determination by the method of Lowry, et al. (J. Biol. Chem. 193, 265; 1951). […]

cholesterol absorption = assay: Zilversmit test, cholesterol absorption in the cholesterol fed rabbit; type: in vivo, Male New Zealand rabbits; settings: three days, n = 4
Experimental: The Zilversmit test is carried out as follows:
Cholesterol-1-2-^3 H and cholesterol-4-^14 C were obtained from New England Nuclear. They were purified by high pressure liquid chromatography (Beckman Model 332) using a reverse phase ultrasphere O.D.S. 25 cm×4.5 mm I.D. column with the following solvent system:
The flow rate was 1 ml/min. Detection was made at 206 nm using a Model 155-40 UV-Vis detector (Beckman). The radioactive cholesterol solution in benzene was evaporated to dryness, taken up in isopropyl alcohol and injected into the HPLC in five 20 μl aliguots. Cholesterol fractions were collected, pooled and evaporated to dryness. The purified fraction was rechromatographed under the same conditions to confirm purity.
The HPLC-purified cholesterol-1-2-^3 H was dissolved in corn oil (M.C.B.U.S.P.). The corn oil solution was added to 6.8% skim milk in a ratio of 1:4. This mixture was homogenized by sonicating with a Bronwell Biosonik IV sonicator using a microprobe at a "Lo" setting of 50 until a homogenous suspension was formed. […]
The radioactivity was determined by liquid scintillation counting in either a Packard 3320 Liquid Scintillation Spectrometer or a Beckman Model LS8000. […]
The combined efficiency of the oxidizer and liquid scintillation counter was determined for each isotope from standards of known specific activity. […]

[2] = 1 mg test compound per 100 ml of media, 24 hours, listed as A

CCCCCCCC/C=C\CCCCCCCC(=O)NC(Cc1c[nH]c2ccccc12)C(=O)OCC (single isomer, unassigned) [Example 2a, α-[(1-oxo-9-octadecenylamino)]-1H-indole-3-propanoic acid, ethyl ester (cis isomer)]
Cholesterol Free [1, 2]: 50.4 μg/mg cell protein and 54.4 μg/mg cell protein | Cholesterol Total [1, 2]: 57.4 μg/mg cell protein and 60.3 μg/mg cell protein | Cholesterol Ester Amount ([1]; 1 mg test compound per 100 ml of media, 24 hours, single culture, controls 23.1 and 21.4, listed as A): 7.0 μg/mg cell protein and 5.9 μg/mg cell protein | Cholesterol Ester Percent from control ([1]; decrease, significant at P less than 0.01, 1 mg per 100 ml of media): 71.0% | Cholesterol Ester mean ([1]; mean of two cultures, 1 mg per 100 ml of media, control mean 22.3): 6.5 μg/mg cell protein | Percent Cholesterol Absorption (cholesterol absorption; 200 mg/kg by gavage, ± S.E.M., control 43.0 ± 2.03): 20.0 ± 1.43% | Percent Cholesterol Absorption (cholesterol absorption; 500 mg/kg by gavage, Mean ± S.E.M., control 41.0 ± 3.3): 11.2 ± 1.1%
